pEC50, pIC50: −log10 of the molar value. Values joined by “and” are separate entries in the source; they are usually repeats but may differ in a detail not shown here. Equal values may be shown once. Where a name gives a salt, the structure may show the parent alone. Read-outs that look alike come from different tables or passages of the source.
Assays:
[1] = tested on: SUDHL5; test: Antiproliferation assay 7, SUDHL5; assay type: cell-based; details: SUDHL5 cells, CellTiter-Glo, read-out: Antiproli SUDHL5 IC50 (median)
Outline: (§1)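 Cells were exposed to compound for 72 hours at 37° C. Viability was measured by CellTiter-Glo luminescence. A day 0 plate read at the start served as the time-zero reference.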

[2] = tested on: SUDHL10; test: Induction of cytotoxicity (Assay 6), SUDHL10
[3] = tested on: SUDHL5; test: Induction of cytotoxicity (Assay 6), SUDHL5
[4] = molecular target: BCL-XL (Homo sapiens (Human), UniProt Q07817); test: Protein-protein interaction assay BCL-XL/Bad BH3 peptide (BCL-XL Assay, TR-FRET); assay type: binding; details: read-out: BCL-XL Assay IC50 (median)
BCL-XL, sequence (Q07817 other isoform, or with tags, fused parts or gaps): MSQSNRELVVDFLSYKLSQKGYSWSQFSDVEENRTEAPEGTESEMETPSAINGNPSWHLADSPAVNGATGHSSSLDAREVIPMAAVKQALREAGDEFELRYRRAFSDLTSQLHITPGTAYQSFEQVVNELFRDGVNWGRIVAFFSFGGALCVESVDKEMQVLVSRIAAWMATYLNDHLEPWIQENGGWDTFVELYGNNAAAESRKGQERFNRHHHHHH
Experimental: Assay 2 Protein-Protein Interaction Assay: BCL-XL/Bad BH3 Peptide (BCL-XL Assay)
The dose-dependent inhibition by the compounds described in this invention of the interaction between BCL-XL and the BH3 domain of Bad (both human) was determined using a steady state binding competition assay with time-resolved fluorescence energy transfer (TR-FRET) readout.
(§2) For that, 100-fold concentrated DMSO solutions were prepared by serial dilutions (1:3.4) of a 2 mM stock solution in a clear, 384-well microtiter plate (Greiner Bio-One, Frickenhausen, Germany). From there, 50 nl were transferred in a dark test plate (Greiner Bio-One, Frickenhausen, Germany). […] This was followed by a 10-minute incubation step at 22° C. for pre-equilibration of the putative complex between His-BCL-XL and the compounds.
The mixture was incubated in the dark for one hour at 22° C. and then overnight at 4° C. The formation of BCL-XL/Bad complexes was determined by measuring the resonance energy transfer of the anti-His- Eu-cryptate antibody to the streptavidin-XL665 present in the reaction.
(§3) The resulting data (ratio) were normalized, taking 0% inhibition as the mean value of control measurements (usually 32 data points) where all reagents were included. In this case 50 nl DMSO were used instead of compounds. […] IC50 values were determined by regression analysis based on a 4 parameter equation (minimum, maximum, IC50, Hill; Y=Max+(Min−Max)/(1+(X/IC50)^Hill) using the Screener Software (Genedata).

[5] = molecular target: MCL-1 (Homo sapiens (Human), UniProt Q07820, K194A/K197A/R201A); test: Protein-protein interaction assay MCL-1/Noxa BH3 peptide (MCL-1 Assay, TR-FRET); assay type: binding; details: read-out: MCL-1 Assay IC50 (median)
MCL-1, sequence (Q07820 whole entry K194A/K197A/R201A, looked up, the tested form may be a part): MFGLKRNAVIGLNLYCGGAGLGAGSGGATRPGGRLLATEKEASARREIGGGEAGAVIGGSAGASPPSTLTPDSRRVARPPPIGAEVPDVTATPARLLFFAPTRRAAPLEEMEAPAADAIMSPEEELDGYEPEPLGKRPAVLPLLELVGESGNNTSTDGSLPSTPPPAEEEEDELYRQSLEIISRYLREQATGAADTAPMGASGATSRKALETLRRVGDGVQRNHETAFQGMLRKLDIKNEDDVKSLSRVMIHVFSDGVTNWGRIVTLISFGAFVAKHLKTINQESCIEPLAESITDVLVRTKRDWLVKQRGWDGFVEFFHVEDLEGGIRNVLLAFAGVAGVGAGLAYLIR
Experimental: The dose-dependent inhibition by the compounds described in this invention of the interaction between MCL-1 and the BH3 domain of Noxa (both human) was determined using a steady state binding competition assay with time-resolved fluorescence energy transfer (TR-FRET) readout. […] The MBP-MCL-1 was purchased from Beryllium (Bedford, Mass., USA). The expression and purification of this protein construct has been described elsewhere (DOI:10.1371/journal.pone.0125010). The Noxa BH3-derived peptide can be obtained from e.g. Biosyntan (Berlin, Germany).
as §2, with “MBP-MCL-1” for “His-BCL-XL”
(§4) The mixture was incubated in the dark for one hour at 22° C. and then overnight at 4° C.
as §3

[6] = tested on: MV-4-11; test: Antiproliferation assay 7, MV-4-11; assay type: cell-based; details: Homo sapiens, MV4-11, 72 h, MV-4-11 cells, CellTiter-Glo, read-out: Antiproli MV-4-11 IC50 median
Outline: as §1

[7] = tested on: SUDHL10; test: Induction of caspase-3/7 activity (Assay 4), SUDHL10; assay type: cell-based; details: SUDHL10 cells
Outline: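 SUDHL10 DLBCL cells treated with compounds for 3 hours at 37 °C in a humidified incubator. Caspase-3/7 activity read with Caspase-Glo 3/7 luminescent reagent. Medium-only background subtracted from all values.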

[8] = tested on: SUDHL5; test: Induction of caspase-3/7 activity (Assay 4), SUDHL5; assay type: cell-based; details: SUDHL5 cells
Outline: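 DLBCL cells treated with compounds for 3 hours at 37° C. Caspase-3/7 activity measured by Caspase-Glo 3/7 luminescence, with medium-only background subtracted.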

[9] = molecular target: BCL-2 (Homo sapiens (Human), UniProt P10415); test: Protein-protein interaction assay BCL-2/Bad BH3 peptide (BCL-2 Assay, TR-FRET); assay type: binding; details: read-out: BCL-2 Assay IC50 (median)
BCL-2, sequence (P10415 other isoform, or with tags, fused parts or gaps): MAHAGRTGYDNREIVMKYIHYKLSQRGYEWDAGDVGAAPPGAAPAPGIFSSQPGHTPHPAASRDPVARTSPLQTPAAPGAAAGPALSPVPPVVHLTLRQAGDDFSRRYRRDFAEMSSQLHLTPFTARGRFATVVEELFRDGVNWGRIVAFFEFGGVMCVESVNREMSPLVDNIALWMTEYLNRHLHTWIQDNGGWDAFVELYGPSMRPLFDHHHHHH
Experimental: The dose-dependent inhibition by the compounds described in this invention of the interaction between BCL-2 and the BH3 domain of Bad (both human) was determined using a steady state binding competition assay with time-resolved fluorescence energy transfer (TR-FRET) readout.
as §2, with “His-BCL-2” for “His-BCL-XL”
as §4, §3

[10] = tested on: SK-BR-3; test: Antiproliferation assay 7, SK-BR-3; assay type: cell-based; details: Homo sapiens; SK-BR-3 cells, 72 hours, CellTiter-Glo; read-out: Antiproli SK-BR-3 IC50 median
Experimental: (§5) Assessment of the Anti-Proliferative Effect of Compounds in Different Cell Lines
(§6) The impact of compounds on the proliferation of different cell lines was assessed using the CellTiter-Glo® Luminescent Cell Viability reagent from Promega (G7573).
(§7) In parallel, cells were plated in a reference (day 0) plate for time zero determination.
(§8) Rim wells were excluded. The cells were incubated for 72 hours in a humidified incubator at 37° C. The day 0 plate was measured by adding 30 μL/well of CTG solution (CellTiter-Glo® Luminescent Cell Viability reagent, Promega G7573) to time zero wells in the reference plate followed by a 10 minutes incubation and luminescence reading at 0.1 ms. using the PHERAstar FS microplate reader (BMG Labtech).
(§9) After 72 hours incubation, the treated plates were measured in the same way as the day 0 plate mentioned above.

[11] = tested on: HMC-1-8; test: Antiproliferation assay 7, HMC-1-8; assay type: cell-based; details: HMC-1-8 cells, CellTiter-Glo, read-out: Antiproli HMC-1-8 IC50 median
Outline: as §1

[12] = tested on: SUDHL10; test: Antiproliferation assay 7, SUDHL10; assay type: cell-based; details: Homo sapiens, SU-DHL10, 72 h, SUDHL10 cells, CellTiter-Glo, read-out: Antiproli SUDHL10 IC50 (median)
Experimental: as §5, §6, §7, §8, §9

[13] = tested on: AMO-1; test: Antiproliferation assay 7, AMO-1; assay type: cell-based; details: AMO-1 cells, CellTiter-Glo, read-out: Antiproli AMO-1 IC50 median
Outline: as §1

[14] = Homo sapiens, SU-DHL10, 5 h, read-out: Cytotox SUDHL10 IC50 (median), SUDHL10 cells, 5 hours, CellTiter-Glo
[15] = Homo sapiens, SU-DHL-5, 5 h, read-out: Cytotox SUDHL5 IC50 (median), SUDHL5 cells, 5 hours, CellTiter-Glo
[16] = Homo sapiens, SU-DHL10, 3 h, Caspase-Glo 3/7, read-out: Caspase SUDHL10 EC50 (median)
[17] = Homo sapiens, SU-DHL-5, 3 h, Caspase-Glo 3/7, read-out: Caspase SUDHL5 EC50 (median)
[18] = read-out: Cytotox SUDHL10 IC50 (median), SUDHL10 cells, 5 hours, CellTiter-Glo
[19] = read-out: Cytotox SUDHL5 IC50 (median), SUDHL5 cells, 5 hours, CellTiter-Glo
[20] = 3 hours, Caspase-Glo 3/7, read-out: Caspase SUDHL10 EC50 (median)
[21] = 3 hours, Caspase-Glo 3/7, read-out: Caspase SUDHL5 EC50 (median)

| Structure (SMILES) | pIC50 ([1]; Homo sapiens, SU-DHL-5, 72 h) | pIC50 [4] | pIC50 [5] | pIC50 [6] | pEC50 [7, 16] | pEC50 [8, 17] | pIC50 [9] | pIC50 [10] | pEC50 [7, 20] | pEC50 [8, 21] | pIC50 ([1]; 72 hours) | pIC50 [2, 14] | pIC50 [3, 15] | pIC50 ([11]; 72 h) | pIC50 [12] | pIC50 ([13]; Homo sapiens, AMO1, 72 h) | pIC50 ([11]; 72 hours) | pIC50 [2, 18] | pIC50 [3, 19] | pIC50 ([13]; 72 hours) |
| --- | --- | --- | --- | --- | --- | --- | --- | --- | --- | --- | --- | --- | --- | --- | --- | --- | --- | --- | --- | --- |
| CCc1c2c(nn1C)COC/C=C\Cn1c(C(=O)O)c(CCCOc3cccc4ccccc34)c3ccc(Cl)c-2c31 (racemic) [Example 18, (rac)-(11 Z)-4-chloro-3-ethyl-2-methyl-7-[3-(naphthalen-1-yloxy)propyl]-2,10,13,15-tetrahydropyrazolo[4′,3′:9,10][1,6]oxazacycloundecino[8,7,6-hi]indole-8-carboxylic Acid] | 5.85 | < 4.70 | 8.89 | 5.33 | 5.89 | 5.96 | < 4.70 and 4.73 and 4.69 |  |  |  |  | 5.89 | 5.92 |  |  |  |  |  |  |  |
| CCc1c2c(nn1C)COCCCCn1c(C(=O)O)c(CCCOc3cccc4ccccc34)c3ccc(Cl)c-2c31 (racemic) [Example 19, (rac)-4-chloro-3-ethyl-2-methyl-7-[3-(naphthalen-1-yloxy)propyl]-2,10,11,12,13,15-hexahydropyrazolo[4′,3′:9,10][1,6]oxazacycloundecino[8,7,6-hi]indole-8-carboxylic Acid] | 6.24 |  |  | 5.78 | 6.49 | 6.47 |  | 5.49 |  |  |  | 6.36 | 6.32 |  |  |  |  |  |  |  |
| Cc1c2c(nn1C)CN(C)CCCCn1c(C(=O)O)c(CCCOc3cccc4cc(F)ccc34)c3ccc(Cl)c-2c31 (racemic) [Example 30, (rac)-4-chloro-7-{3-[(6-fluoronaphthalen-1-yl)oxy]propyl}-2,3,14-trimethyl-10,11,12,13,14,15-hexahydro-2H-pyrazolo[3′,4′:8,9][1,6]diazacycloundecino[10,11,1-hi]indole-8-carboxylic Acid] | 6.77 |  | 9.04 | 6.53 | 6.43 | 6.74 |  |  |  |  |  | 6.47 | 6.68 | 5.81 | 6.82 | 6.38 |  |  |  |  |
| Cc1c2c(nn1C)N(C)CCCCCn1c(C(=O)O)c(CCCOc3cccc4ccccc34)c3ccc(Cl)c-2c31 (single isomer, unassigned) [Example 73, (−)-4-chloro-2,3,15-trimethyl-7-{3-[(naphthalen-1-yl)oxy]propyl}-10,11,12,13,14,15-hexahydro-2H-pyrazolo[4′,3′:4,5][1,6]diazacycloundecino[3,2,1-hi]indole-8-carboxylic acid] |  | < 4.70 | 7.80 |  |  |  | < 4.70 |  | 4.74 | 4.82 |  |  |  |  |  |  | 4.62 | 4.59 | 4.85 | 4.74 |
| Cc1c2c(nn1C)N(C)CCCCCn1c(C(=O)O)c(CCCOc3cccc4cc(F)ccc34)c3ccc(Cl)c-2c31 [Example 76, (−)-4-chloro-7-{3-[(6-fluoronaphthalen-1-yl)oxy]propyl}-2,3,15-trimethyl-10,11,12,13,14,15-hexahydro-2H-pyrazolo[4′,3′:4,5][1,6]diazacycloundecino[3,2,1-hi]indole-8-carboxylic acid-N-ethylethanamine salt] |  | < 4.70 |  |  |  |  | < 4.70 |  | 5.21 | 5.49 | 5.34 |  |  |  |  |  | 4.89 | 5.15 | 5.52 | 5.07 |

Second part, led by results:

| pIC50 ([1]; Homo sapiens, SU-DHL-5, 72 h) | pIC50 [4] | pIC50 [5] | pIC50 [6] | pEC50 [7, 16] | pEC50 [8, 17] | pIC50 [9] | pIC50 [10] | pEC50 [7, 20] | pEC50 [8, 21] | pIC50 ([1]; 72 hours) | Structure (SMILES) | pIC50 [2, 14] | pIC50 [3, 15] | pIC50 ([11]; 72 h) | pIC50 [12] | pIC50 ([13]; Homo sapiens, AMO1, 72 h) | pIC50 ([11]; 72 hours) | pIC50 [2, 18] | pIC50 [3, 19] | pIC50 ([13]; 72 hours) |
| --- | --- | --- | --- | --- | --- | --- | --- | --- | --- | --- | --- | --- | --- | --- | --- | --- | --- | --- | --- | --- |
| 6.01 | < 4.70 | 8.96 |  | 6.31 | 6.32 | 4.77 |  |  |  |  | CCc1c2c(nn1C)N(C)CCCCCn1c(C(=O)O)c(CCCOc3cccc4cc(F)ccc34)c3ccc(Cl)c-2c31 (racemic) [Example 77, (rac)-4-chloro-3-ethyl-7-{3-[(6-fluoronaphthalen-1-yl)oxy]propyl}-2,15-dimethyl-10,11,12,13,14,15-hexahydro-2H-pyrazolo[4′,3′:4,5][1,6]diazacycloundecino[3,2,1-hi]indole-8-carboxylic Acid] | 6.06 | 6.35 | 5.48 |  | 6.28 |  |  |  |  |
|  | < 4.70 |  |  |  |  | < 4.70 |  | 5.27 | 5.55 | 5.42 | CCc1c2c(nn1C)N(C)CCCCCn1c(C(=O)O)c(CCCOc3cccc4cc(F)ccc34)c3ccc(Cl)c-2c31 (single isomer, unassigned; enantiomer 2) [Example 79, 4-chloro-3-ethyl-7-{3-[(6-fluoronaphthalen-1-yl)oxy]propyl}-2,15-dimethyl-10,11,12,13,14,15-hexahydro-2H-pyrazolo[4′,3′:4,5][1,6]diazacycloundecino[3,2,1-hi]indole-8-carboxylic acid N-ethylethanamine Salt—Enantiomer 2] |  |  |  |  |  | 4.85 | 5.29 | 5.66 | 5.13 |

— patent US11447504B2, “Macrocyclic chlorine substituted indole derivatives” (Bayer Aktiengesellschaft, priority 2017, dated 2022)
